Blank lines part the entries; values can stand above or below the compound they belong to. Active and inactive are the calls of the source.
How the values were obtained:
Kallikrein-7 = Kallikrein-7 (Homo sapiens, UniProt P49862); experiment: Fluorescence Intensity-based biochemical primary high throughput dose response assay to identify activators of kallikrein-7 (K7) zymogen.
Paired box protein Pax-8 = Paired box protein Pax-8 (Homo sapiens, UniProt Q06710); experiment: PAX8 transcriptional activity inhibition in RMG-I – RMG-I cells, luciferase, cherry-pick, dose response (AID 687027); type: functional, cell-based;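 also: luciferase reporter driven by Pax8 target thyroperoxidase promoter measured by SteadyGlo luminescence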
Paired box protein Pax-8, sequence (Q06710 whole entry): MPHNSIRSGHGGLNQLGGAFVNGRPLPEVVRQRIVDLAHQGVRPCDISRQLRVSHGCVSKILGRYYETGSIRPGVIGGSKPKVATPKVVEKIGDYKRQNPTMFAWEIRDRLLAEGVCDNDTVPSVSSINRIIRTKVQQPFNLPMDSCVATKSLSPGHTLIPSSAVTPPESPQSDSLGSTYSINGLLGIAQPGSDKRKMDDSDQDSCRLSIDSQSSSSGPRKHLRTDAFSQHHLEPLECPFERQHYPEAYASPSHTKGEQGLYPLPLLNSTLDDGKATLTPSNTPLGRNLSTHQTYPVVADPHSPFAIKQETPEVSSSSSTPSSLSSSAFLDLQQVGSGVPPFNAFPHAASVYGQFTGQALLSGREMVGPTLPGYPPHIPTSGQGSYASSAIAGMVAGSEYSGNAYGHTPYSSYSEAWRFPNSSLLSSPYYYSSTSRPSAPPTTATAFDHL

[1] = biological target: Tyrosyl-DNA phosphodiesterase 2 (Homo sapiens, UniProt O95551); experiment: potency against TDP2 phosphodiesterase activity – biochemical, epi absorbance, IC50, dose response (AID 743297)
Tyrosyl-DNA phosphodiesterase 2, sequence (O95551 whole entry): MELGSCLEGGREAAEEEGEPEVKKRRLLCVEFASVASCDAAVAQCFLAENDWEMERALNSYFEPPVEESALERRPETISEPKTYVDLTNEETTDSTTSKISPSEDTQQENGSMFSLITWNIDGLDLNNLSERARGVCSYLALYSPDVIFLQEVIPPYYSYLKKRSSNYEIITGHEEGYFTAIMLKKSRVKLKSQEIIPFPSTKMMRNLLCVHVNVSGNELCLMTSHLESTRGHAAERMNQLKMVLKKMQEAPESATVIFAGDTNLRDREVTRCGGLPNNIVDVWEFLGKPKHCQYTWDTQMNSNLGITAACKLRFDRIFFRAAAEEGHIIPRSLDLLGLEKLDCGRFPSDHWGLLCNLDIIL

[2] = general cell-killing toxicity readout – plate reader, dry powder samples, cytotoxicity control for PAX8 inhibitor project, dose response (AID 743021); type: functional, cell-based
Hexokinase HKDC1 = biological target: T1, Hexokinase HKDC1 (Homo sapiens, UniProt Q2TB90); experiment: activation of HKDC1 glucose phosphorylation – biochemical, W721R variant, dose response (AID 504730); type: functional
T1 sequence (Q2TB90 whole entry): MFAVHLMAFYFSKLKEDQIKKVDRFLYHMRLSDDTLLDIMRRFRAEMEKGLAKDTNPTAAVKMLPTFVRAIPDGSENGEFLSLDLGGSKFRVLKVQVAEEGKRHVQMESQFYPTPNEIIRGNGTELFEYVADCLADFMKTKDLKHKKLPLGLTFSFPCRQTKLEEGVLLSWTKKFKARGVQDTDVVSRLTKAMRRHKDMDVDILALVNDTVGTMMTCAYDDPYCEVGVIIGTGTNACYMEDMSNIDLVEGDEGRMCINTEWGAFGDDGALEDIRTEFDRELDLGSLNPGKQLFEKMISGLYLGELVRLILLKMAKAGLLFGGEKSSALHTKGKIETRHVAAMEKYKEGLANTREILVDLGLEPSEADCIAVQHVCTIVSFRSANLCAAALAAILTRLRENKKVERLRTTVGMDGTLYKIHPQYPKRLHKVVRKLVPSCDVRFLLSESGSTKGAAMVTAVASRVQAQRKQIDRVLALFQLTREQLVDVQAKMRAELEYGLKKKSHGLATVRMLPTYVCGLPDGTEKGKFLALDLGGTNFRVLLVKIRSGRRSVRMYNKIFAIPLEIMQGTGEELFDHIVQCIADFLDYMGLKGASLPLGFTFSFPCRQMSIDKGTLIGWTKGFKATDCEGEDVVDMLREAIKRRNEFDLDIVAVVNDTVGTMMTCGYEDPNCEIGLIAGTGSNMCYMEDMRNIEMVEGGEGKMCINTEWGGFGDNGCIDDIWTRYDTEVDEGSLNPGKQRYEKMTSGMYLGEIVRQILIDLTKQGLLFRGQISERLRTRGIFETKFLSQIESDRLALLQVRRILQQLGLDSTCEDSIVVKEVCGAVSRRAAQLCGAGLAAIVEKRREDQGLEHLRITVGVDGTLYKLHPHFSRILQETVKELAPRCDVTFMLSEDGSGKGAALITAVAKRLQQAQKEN

[3] = biological target: 1-phosphatidylinositol 4,5-bisphosphate phosphodiesterase beta-3 (Homo sapiens, UniProt Q01970); experiment: Fluorescence-based biochemical high throughput dose response assay to identify inhibitors of phospholipase C isozymes (PLC-B3).
1-phosphatidylinositol 4,5-bisphosphate phosphodiesterase beta-3, sequence (Q01970 whole entry): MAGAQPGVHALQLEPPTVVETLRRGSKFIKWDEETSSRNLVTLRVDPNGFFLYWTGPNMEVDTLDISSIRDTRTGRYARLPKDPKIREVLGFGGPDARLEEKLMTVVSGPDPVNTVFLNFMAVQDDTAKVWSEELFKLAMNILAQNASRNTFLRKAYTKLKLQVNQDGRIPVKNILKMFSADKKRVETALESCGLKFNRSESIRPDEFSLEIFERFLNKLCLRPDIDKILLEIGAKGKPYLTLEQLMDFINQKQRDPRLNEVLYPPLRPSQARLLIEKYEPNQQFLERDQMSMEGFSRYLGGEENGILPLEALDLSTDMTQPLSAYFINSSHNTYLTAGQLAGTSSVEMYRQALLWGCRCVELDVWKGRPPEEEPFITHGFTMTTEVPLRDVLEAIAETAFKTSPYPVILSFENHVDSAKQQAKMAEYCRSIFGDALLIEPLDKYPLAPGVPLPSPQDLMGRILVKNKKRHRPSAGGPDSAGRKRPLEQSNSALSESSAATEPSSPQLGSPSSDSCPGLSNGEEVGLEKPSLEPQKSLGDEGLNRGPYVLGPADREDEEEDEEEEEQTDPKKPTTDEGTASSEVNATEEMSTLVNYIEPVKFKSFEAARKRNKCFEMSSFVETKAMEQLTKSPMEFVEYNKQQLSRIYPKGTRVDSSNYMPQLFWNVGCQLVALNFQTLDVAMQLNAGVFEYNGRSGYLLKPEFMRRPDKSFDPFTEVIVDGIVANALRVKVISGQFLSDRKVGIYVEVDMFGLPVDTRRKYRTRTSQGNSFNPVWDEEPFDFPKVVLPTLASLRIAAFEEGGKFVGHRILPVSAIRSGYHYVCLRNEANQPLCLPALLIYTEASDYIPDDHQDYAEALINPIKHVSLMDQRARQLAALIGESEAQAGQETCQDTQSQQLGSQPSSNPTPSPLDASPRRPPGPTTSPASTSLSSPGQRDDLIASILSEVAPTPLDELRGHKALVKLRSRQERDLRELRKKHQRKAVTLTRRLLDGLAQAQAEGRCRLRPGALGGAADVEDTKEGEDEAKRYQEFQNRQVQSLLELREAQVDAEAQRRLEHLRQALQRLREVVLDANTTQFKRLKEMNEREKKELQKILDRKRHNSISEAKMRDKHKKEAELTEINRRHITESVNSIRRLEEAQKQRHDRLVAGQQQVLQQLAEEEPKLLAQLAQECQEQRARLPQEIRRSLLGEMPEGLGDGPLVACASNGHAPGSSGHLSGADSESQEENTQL

[4] = biological target: 1-phosphatidylinositol 4,5-bisphosphate phosphodiesterase gamma-1 (Homo sapiens, UniProt P19174); experiment: Counterscreen for inhibitors of phospholipase C isozymes (PLC-B3): Fluorescence-based biochemical high throughput dose response assay to identify inhibitors of phospholipase C isozymes (PLC-gamma1).
1-phosphatidylinositol 4,5-bisphosphate phosphodiesterase gamma-1, sequence (P19174 whole entry): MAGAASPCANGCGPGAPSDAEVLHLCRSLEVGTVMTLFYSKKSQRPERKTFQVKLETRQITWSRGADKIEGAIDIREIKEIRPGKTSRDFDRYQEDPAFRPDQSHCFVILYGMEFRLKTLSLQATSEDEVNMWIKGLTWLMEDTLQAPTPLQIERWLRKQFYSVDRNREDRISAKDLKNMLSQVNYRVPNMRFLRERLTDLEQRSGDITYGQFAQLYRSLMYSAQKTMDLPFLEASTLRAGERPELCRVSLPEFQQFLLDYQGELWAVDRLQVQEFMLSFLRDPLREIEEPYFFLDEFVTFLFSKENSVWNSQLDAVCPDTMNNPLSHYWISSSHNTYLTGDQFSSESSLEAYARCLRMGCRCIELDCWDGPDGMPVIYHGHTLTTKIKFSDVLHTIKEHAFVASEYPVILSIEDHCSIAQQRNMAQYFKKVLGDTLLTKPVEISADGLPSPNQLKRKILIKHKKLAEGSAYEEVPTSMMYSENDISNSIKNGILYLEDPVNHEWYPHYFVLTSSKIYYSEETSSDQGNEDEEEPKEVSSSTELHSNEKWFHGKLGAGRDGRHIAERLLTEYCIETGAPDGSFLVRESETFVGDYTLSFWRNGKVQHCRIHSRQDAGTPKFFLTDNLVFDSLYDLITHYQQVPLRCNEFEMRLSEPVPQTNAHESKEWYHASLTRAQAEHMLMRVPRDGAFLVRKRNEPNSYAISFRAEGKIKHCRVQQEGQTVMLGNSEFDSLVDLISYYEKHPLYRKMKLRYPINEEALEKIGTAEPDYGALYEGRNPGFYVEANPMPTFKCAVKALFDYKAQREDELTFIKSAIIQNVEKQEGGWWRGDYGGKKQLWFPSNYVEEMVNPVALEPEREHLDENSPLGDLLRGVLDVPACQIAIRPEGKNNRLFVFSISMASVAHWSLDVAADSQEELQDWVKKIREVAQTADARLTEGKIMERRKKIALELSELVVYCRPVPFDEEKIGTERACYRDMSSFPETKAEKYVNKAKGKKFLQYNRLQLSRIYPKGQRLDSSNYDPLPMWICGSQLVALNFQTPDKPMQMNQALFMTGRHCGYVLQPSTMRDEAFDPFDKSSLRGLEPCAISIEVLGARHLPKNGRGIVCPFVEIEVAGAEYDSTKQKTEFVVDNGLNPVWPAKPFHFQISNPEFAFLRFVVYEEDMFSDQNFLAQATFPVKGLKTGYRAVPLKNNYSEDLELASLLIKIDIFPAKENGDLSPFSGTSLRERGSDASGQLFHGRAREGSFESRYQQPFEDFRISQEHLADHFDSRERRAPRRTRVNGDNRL

[5] = biological target: T2, Histone-lysine N-methyltransferase NSD2 (Homo sapiens, UniProt O96028); type: biochemical
T2 sequence (O96028 whole entry): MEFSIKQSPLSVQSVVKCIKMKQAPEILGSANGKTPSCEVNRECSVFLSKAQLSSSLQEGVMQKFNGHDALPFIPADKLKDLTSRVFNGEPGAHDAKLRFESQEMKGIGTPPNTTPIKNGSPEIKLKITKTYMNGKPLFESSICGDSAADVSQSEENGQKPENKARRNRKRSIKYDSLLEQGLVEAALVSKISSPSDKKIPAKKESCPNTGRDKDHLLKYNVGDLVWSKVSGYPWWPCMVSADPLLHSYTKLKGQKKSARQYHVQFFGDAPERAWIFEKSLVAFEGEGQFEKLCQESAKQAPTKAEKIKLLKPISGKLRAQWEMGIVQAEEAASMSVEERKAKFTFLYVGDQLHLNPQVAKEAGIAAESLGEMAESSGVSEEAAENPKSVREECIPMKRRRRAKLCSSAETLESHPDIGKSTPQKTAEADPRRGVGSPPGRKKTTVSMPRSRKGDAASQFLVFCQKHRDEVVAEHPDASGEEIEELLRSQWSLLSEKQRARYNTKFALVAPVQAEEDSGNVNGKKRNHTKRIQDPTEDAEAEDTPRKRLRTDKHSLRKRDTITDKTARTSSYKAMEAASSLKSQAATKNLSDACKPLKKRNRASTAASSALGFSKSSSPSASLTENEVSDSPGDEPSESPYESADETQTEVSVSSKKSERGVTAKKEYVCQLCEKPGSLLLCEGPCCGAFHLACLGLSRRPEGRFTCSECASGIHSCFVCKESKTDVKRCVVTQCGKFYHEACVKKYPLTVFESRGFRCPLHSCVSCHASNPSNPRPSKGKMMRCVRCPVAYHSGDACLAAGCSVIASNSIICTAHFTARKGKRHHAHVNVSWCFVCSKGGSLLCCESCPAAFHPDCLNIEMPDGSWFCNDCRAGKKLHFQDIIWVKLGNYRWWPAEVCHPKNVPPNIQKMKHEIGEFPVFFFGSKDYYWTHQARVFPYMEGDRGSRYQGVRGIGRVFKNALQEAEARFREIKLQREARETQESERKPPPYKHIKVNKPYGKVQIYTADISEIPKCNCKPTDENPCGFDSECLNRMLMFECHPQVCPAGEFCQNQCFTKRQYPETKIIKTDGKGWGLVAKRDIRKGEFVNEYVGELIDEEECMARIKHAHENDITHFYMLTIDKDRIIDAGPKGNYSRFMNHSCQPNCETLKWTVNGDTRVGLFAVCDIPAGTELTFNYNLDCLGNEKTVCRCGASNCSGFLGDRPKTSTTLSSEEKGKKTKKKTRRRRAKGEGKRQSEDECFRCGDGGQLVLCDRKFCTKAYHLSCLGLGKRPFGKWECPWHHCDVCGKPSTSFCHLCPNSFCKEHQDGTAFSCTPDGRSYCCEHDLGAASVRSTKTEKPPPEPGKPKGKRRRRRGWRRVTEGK

Hexokinase-1 = biological target: T3, Hexokinase-1 (Homo sapiens, UniProt P19367); experiment: HK1 enzyme activation by HKDC1 hits – biochemical, selectivity assay for HKDC1 activator project, dose response (AID 504762); type: functional
T3 sequence (P19367 whole entry): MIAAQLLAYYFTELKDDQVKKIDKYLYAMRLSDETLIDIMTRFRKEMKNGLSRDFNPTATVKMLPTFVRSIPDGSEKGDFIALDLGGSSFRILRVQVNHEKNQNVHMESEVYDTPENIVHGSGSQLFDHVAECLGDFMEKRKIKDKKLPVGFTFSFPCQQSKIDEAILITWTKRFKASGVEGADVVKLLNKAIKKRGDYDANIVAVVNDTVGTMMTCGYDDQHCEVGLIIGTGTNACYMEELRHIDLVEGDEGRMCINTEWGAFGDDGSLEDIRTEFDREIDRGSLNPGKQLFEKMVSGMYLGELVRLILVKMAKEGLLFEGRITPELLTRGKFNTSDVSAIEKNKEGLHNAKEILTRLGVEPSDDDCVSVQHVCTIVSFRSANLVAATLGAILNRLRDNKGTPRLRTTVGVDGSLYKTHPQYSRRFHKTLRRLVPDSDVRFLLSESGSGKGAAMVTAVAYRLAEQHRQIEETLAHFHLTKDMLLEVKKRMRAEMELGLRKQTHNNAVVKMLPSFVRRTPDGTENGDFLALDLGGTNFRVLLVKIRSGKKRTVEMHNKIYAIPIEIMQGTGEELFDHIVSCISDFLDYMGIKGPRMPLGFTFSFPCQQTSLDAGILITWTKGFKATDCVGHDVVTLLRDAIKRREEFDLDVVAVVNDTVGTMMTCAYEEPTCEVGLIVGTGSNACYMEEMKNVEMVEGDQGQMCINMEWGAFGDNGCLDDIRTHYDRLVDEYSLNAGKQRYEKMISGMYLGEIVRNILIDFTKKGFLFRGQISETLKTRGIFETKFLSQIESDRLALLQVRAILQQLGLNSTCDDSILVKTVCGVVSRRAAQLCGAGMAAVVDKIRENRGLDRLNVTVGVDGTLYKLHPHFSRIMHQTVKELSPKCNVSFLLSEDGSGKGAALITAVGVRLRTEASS

[6] = IC50 of Artemis nuclease activity blockers – biochemical, fluorescence intensity, dose response (AID 720701); type: functional;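 also: Artemis endonuclease enzyme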
[7] = biological target: T4, NAD-dependent protein deacylase sirtuin-5, mitochondrial (Homo sapiens, UniProt Q9NXA8); experiment: sirtuin-5 deacylation blockers, concentration series – biochemical, fluorescence imaging, cherry-pick, set 5, dose response (AID 720591);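 also: desuccinylation of succinyl peptide AMC substrate read as fluorescence after trypsin release; potency of inhibitors that lower fluorescence and may act on trypsin instead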
T4 sequence (Q9NXA8 whole entry): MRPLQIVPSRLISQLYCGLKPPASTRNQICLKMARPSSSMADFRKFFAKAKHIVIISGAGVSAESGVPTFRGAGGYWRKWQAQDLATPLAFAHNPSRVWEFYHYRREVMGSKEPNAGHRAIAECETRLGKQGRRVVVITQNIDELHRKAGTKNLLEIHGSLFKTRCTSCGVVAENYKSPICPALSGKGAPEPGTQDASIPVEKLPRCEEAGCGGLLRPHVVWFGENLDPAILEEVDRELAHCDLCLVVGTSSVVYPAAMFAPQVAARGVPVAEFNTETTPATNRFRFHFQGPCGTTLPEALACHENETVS

[8] = reduced cellular PGC1a acetyl-lysine signal – cell-based, cherry-picked samples, dose response (AID 720514); type: functional;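 also: potency may reflect raised or lowered acetylation signal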
Vasopressin V1b receptor = Vasopressin V1b receptor (Homo sapiens, UniProt P47901); experiment: Late-stage results from the probe development effort to identify antagonists of arginine vasopressin receptor 1a (AVPR1a): fluorescence-based cell-based dose response AVPR1b inhibition counterscreen assay.; type: functional
Vasopressin V1b receptor, sequence (P47901 whole entry): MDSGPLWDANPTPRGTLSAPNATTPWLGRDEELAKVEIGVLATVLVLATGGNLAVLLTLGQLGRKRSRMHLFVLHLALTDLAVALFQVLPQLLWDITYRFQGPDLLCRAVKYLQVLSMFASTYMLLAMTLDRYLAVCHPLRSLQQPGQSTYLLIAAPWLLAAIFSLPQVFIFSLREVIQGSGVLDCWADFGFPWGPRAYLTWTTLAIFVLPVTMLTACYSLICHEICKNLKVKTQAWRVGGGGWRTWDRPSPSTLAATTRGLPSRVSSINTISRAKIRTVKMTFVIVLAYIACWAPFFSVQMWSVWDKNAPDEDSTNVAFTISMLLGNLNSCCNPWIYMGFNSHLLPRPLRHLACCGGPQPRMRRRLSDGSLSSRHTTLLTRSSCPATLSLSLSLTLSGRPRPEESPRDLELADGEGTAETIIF

[9] = Late-stage results from the probe development effort to identify antagonists of arginine vasopressin receptor 1a (AVPR1a): fluorescence-based cell-based dose response OXTR inhibition counterscreen assay.; type: functional
[10] = Late-stage results from the probe development effort to identify antagonists of arginine vasopressin receptor 1a (AVPR1a): fluorescence-based cell-based dose response AVPR1a inhibition assay.; type: functional
Vasopressin V2 receptor = Vasopressin V2 receptor (Homo sapiens, UniProt P30518); experiment: Late-stage results from the probe development effort to identify antagonists of arginine vasopressin receptor 1a (AVPR1a): fluorescence-based cell-based dose response AVPR2 inhibition counterscreen assay.; type: functional
Vasopressin V2 receptor, sequence (P30518 whole entry): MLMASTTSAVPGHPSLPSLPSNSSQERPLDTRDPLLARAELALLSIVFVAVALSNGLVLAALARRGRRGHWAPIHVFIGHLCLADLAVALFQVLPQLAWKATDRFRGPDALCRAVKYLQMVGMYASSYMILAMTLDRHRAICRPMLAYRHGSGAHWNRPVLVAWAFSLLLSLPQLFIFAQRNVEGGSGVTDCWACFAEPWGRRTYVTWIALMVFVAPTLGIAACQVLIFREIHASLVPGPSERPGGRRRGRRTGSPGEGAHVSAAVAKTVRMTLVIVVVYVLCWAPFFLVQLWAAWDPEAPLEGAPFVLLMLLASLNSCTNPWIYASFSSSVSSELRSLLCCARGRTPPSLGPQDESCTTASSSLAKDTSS

[11] = Shn3 3'UTR reporter signal decrease – cell-based, Clone20 osteoblasts, firefly luciferase, cherry-pick, set 2, Schnurri-3 inhibitor project, dose response (AID 720490); type: functional;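 also: actives lower the luminescence signal as inhibitors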
[12] = reduction of Shn3 3'UTR-driven luciferase in osteoblasts – cell-based, Clone20 osteoblasts, firefly luciferase, cherry-picked, dose response (AID 624132); type: functional;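 also: firefly luciferase luminescence from reporter carrying the Shn3 3'UTR in osteoblasts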
[13] = biological target: T4, NAD-dependent protein deacylase sirtuin-5, mitochondrial; experiment: blockers of sirtuin-5 peptide desuccinylation – biochemical, fluorescence imaging, cherry-pick, set 6, dose response (AID 720597)
[14] = Late stage counterscreen for inhibitors of Trypanosoma brucei methionyl tRNA synthetase (MetRS): Luminescence-based cell-based high throughput dose response assay to identify compounds that are cytotoxic to Jurkat human T lymphocyte cells.; type: functional
[15] = liver cell line viability loss – HepG2, luminescence plate reader, powder samples, set 2, cytotoxicity control, dose response (AID 651860); type: functional, cell-based
[16] = viability loss in MITF-independent A375 cells – cell-based, CellTiter-Glo luminescence, dry powder, set 2, counter-screen for MITF inhibitor project, dose response (AID 624489); type: functional; details: A-375;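 also: actives are compounds lowering A375 viability meaning general cytotoxicity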
[17] = cytotoxicity in MITF-independent A375 cells – cell-based, CellTiter-Glo luminescence, dry powder, set 4, counter-screen for MITF inhibitor project, dose response (AID 624364); type: functional; details: A-375;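 also: A375 melanoma cells are MITF independent so this is a counter screen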
[18] = anti-trypanosomal activity in BESM host cells – imaging, CA-I/72 strain, bovine embryo skeletal muscle, dry powder, dose response (AID 651885); type: functional, cell-based
[19] = Trypanosoma cruzi replication inhibitors in host cells – cell-based, plate reader, dry powder samples, dose response (AID 651845); type: functional
[20] = T. cruzi growth inhibition in host cells, dose response, cell-based, plate reader, dry powder, set 2 (AID 652275); type: functional

Kallikrein-7, sequence (P49862 whole entry): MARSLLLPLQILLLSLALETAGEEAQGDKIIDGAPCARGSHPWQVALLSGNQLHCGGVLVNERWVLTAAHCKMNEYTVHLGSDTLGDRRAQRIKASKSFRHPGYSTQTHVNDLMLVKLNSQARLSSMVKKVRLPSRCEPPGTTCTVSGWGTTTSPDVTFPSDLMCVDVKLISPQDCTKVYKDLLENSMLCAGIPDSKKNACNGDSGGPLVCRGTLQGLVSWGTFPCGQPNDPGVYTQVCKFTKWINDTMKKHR

EC50 (Kallikrein-7): 8.78 µM (active)
Compound: CC(=O)Nc1ccc2[nH]c(-c3cccs3)nc2c1

Compound: NC1=C(Cl)C(=O)c2ccc(S(N)(=O)=O)cc2C1=O
AC50 (Paired box protein Pax-8): 1.47 µM (active)
IC50 [1]: 1.07 µM (active)
AC50 [2]: 8.31 µM (active)
EC50 (Hexokinase HKDC1): > 80 µM (inactive)
IC50 [3]: > 122 µM (inactive)
IC50 [4]: > 122 µM (inactive)
AC50 [5]: 0.144 µM (active)
EC50 (Hexokinase-1): 1.06 µM (active)

IC50 [6]: 17.3 µM (active)
Compound: Cc1ccc(CNC(=O)c2cc3c(=O)n4ccccc4nc3n(Cc3ccco3)c2=N)cc1

AC50 [7]: > 30 µM (inactive)
Compound: COc1ccc(CN2C(=O)C(CC(=O)NCCc3ccccn3)CC(C(=O)N3CCOCC3)=C2C)cc1 (stereo unspecified)

Compound: CC(C)NC(=O)Nc1ccc2c(c1)C(=O)N([C@@H](C)CO)C[C@H](C)[C@@H](CN(C)C(=O)CCC(F)(F)F)OCCCC[C@@H](C)O2
AC50 [8]: 38 µM (active)

Compound: Cc1ccc(N(CC2CC2)C(=O)N2CCN(c3ccccc3C)CC2)cc1
IC50 (Vasopressin V1b receptor): 17.6 µM (inactive)
IC50 [9]: 0.082 µM (active)
IC50 [10]: 0.0069 µM (active)
IC50 (Vasopressin V2 receptor): 2.22 µM (active)

Compound: CC(Oc1ccc(F)cc1)C(=O)N(CCC1=CCCCC1)c1c(N)n(Cc2ccccc2)c(=O)[nH]c1=O (stereo unspecified)
AC50 [11]: 22.6 µM (active)
AC50 [12]: 7.99 µM (active)

AC50 [13]: 26.7 µM (active)
Compound: C[C@@H]1CN([C@H](C)CO)C(=O)CCCn2nncc2CO[C@H]1CN(C)S(=O)(=O)c1ccc(Cl)cc1

Compound: CC(CC(=O)Nc1cccc(Br)c1)=NNC(=O)c1ccc(O)cc1O
IC50 [14]: > 83.3 µM (inactive)

Compound: NC(=O)[C@H]1CCCC[C@H]1C(=O)N1CCc2ccccc2[C@H]1CN1C(=O)c2ccccc2C1=O
AC50 [15]: > 52 µM (inactive)

Compound: O=C1C(NS(=O)(=O)c2cccs2)=C(N2CCCCC2)C(=O)c2ccccc21
AC50 [16]: > 70 µM (inactive)
AC50 [17]: > 70 µM (inactive)

Compound: CC(C)N(C)C(=O)c1cccc(NC(=O)c2ccncc2)c1OCCCN(C)Cc1ccc(Oc2ccccc2)cc1
IC50 [18]: 10.1 µM (inconclusive)
AC50 [19]: 0.386 µM (active)
AC50 [20]: 0.381 µM (active)

Reference: ChEMBL document CHEMBL1201862, “PubChem BioAssay data set” (2004)
